Measured values as given in patent publication US8822515B2, “Heterocyclic benzoxazole compositions as inhibitors of hepatitis C virus” (University of Maryland, Baltimore County, priority 2009, dated 2014).
Entries after “also recorded” stand apart in the source; their conditions may differ. Where two headings read alike, the source gives them in different places.

What was measured:
HCV NTPase/helicase [1] = molecular target: T1, HCV NTPase/helicase (Hepatitis C virus genotype 1a, UniProt P27958); assay: NTPase/Helicase assay, HCV helicase, DNA substrate; format: biochemical; settings: for inhibition of NTPase/helicase of HCV (in words) / IC50: DNA substrate
T1 sequence (P27958 1027-1657): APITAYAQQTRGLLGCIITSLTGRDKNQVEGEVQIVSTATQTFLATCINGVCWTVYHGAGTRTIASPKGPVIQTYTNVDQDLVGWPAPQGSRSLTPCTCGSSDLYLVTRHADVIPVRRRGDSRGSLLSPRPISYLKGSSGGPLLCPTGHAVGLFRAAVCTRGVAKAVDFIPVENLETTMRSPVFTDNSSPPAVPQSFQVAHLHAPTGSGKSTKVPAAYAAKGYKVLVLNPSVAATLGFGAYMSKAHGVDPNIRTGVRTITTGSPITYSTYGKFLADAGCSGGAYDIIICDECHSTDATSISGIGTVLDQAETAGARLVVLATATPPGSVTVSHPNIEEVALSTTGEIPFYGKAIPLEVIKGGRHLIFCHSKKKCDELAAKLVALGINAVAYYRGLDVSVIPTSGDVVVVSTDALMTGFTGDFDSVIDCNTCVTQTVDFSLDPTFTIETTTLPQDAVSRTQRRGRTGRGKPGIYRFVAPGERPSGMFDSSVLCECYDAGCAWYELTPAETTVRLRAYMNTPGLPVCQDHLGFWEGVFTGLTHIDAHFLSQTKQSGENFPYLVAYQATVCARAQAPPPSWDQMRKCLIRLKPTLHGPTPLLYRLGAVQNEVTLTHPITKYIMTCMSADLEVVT
Protocol: Inhibitory activity of HCV was measured using a DNA substrate.
NTPase/Helicase activity determined by a previously described method. Helicase activity was determined as a function of increasing concentrations of the compounds in the presence of ATP adjusted to 105 μM, 235 μM, for HCV, JEV, and DENV NTPase/Helicase, respectively and […] of DNA substrate (concentration of nucleotide base). The substrate and released strand were separated in TBE polyacrylamide gel and visualized by exposition of dried gel onto X-ray film for 20 h. The part of the gels corresponding to the released strand were excised, and the ^32P radioactivity was quantified.

HCV ATPase = HCV ATPase (Hepatitis C virus genotype 1a, UniProt P27958); assay: ATPase analysis of HCV NTPase/helicase; format: biochemical
Chain of HCV ATPase (P27958 1027-1657): as above

[2] = test system: HCV replicon in Huh7 ET (luc-ubi-neo/ET) cell line; assay: HCV replicon assay (luciferase based), antiviral activity; format: cell-based, Hepatitis C Virus; parameters: SI50: unit not given here; settings: for EC50: Hepatitis C virus, Huh7 ET; for activity against HCV in replicon assay (in words): whole cells; for SI50: selectivity index, luciferase based replicon assay
Excerpt: (§1) To determine if the compounds are active in whole cells, they were screened using an HCV replicon assay. […] Compound 2b also has similar selectivity towards HCV as human interferon alpha-2b (rIFNa-2b), the positive control.
In the replicon assays a Huh7 ET (luc-ubi-neo/ET) cell line is used. This particular construct contain the 5′NTR (IRES) of HCV, producing a firefly luciferase (luc), ubiquitin (ubiq) and neomycin phosphotranferase (neo) fusion protein. This modification makes the cell line more robust and provides the additional stability needed for antiviral screening. […]

[3] = RNA based confirmatory assay, cytotoxicity; format: cell-based; settings: cytotoxicity in RNA based confirmatory assay; high test conc 20 μM (rIFNa-2b 2)
HCV NTPase/helicase [4] = molecular target: T1, HCV NTPase/helicase; assay: NTPase/Helicase assay, HCV helicase, RNA substrate; format: biochemical
Protocol: NTPase/Helicase activity determined by a previously described method. […] The substrate and released strand were separated in TBE polyacrylamide gel and visualized by exposition of dried gel onto X-ray film for 20 h. The part of the gels corresponding to the released strand were excised, and the ^32P radioactivity was quantified.

[5] = test system: Huh7 ET (luc-ubi-neo/ET) cell line; assay: HCV replicon assay (luciferase based), cytotoxicity; format: cell-based; settings: cytotoxicity in luciferase based replicon assay, high test conc 20 μM (rIFNa-2b 2)
Excerpt: as §1
In the replicon assays a Huh7 ET (luc-ubi-neo/ET) cell line is used. This particular construct contain the 5′NTR (IRES) of HCV, producing a firefly luciferase (luc), ubiquitin (ubiq) and neomycin phosphotranferase (neo) fusion protein. This modification makes the cell line more robust and provides the additional stability needed for antiviral screening. The effects of the drug were examined in triplicate at a single high-test concentration of 20 μM on HCV RNA-derived LUC activity and cytotoxicity.

HCV = assay: RNA based confirmatory assay, antiviral activity; format: cell-based, Hepatitis C Virus; parameters: SI50: unit not given here; settings: for EC50: Hepatitis C virus; for SI50: selectivity index, RNA based confirmatory assay
integrase = assay: Integrase test; format: biochemical
[6] = read-out: HCV Helicase (IC50) DNA (converted)
[7] = read-out: HCV Helicase (IC50) RNA
[8] = HCV Helicase (IC50) DNA, in brackets, molar value in brackets
[9] = HCV Helicase (IC50) RNA, in brackets, molar value in brackets

Row | Compound | activity in HCV NTPase/helicase assay (in words) (HCV NTPase/helicase [1]) | inhibition of NTPase/helicase of HCV (in words) (HCV NTPase/helicase [1]) | IC50 (HCV NTPase/helicase [1]; [6]) [µM] | IC50 (HCV ATPase; read-out: ATPase (IC50)) [µM] | EC50 [2] [µM] | activity against HCV in replicon assay (in words) [2] | IC50 [3] [µM] | IC50 (HCV NTPase/helicase [4]; [7]) [µM] | IC50 [5] [µM] | EC50 (HCV) [µM] | IC50 (HCV NTPase/helicase [1]; HCV Helicase (IC50) DNA) [µM] | IC50 (HCV NTPase/helicase [1]; [8]) [µM] | activity against integrase (integrase) | IC50 (HCV ATPase) [µM] | SI50 [2] | melting point [°C] | inhibition of HCV helicase with RNA substrate (in words) (HCV NTPase/helicase [4]) | IC50 (HCV NTPase/helicase [4]; HCV Helicase (IC50) RNA) [µM] | IC50 (HCV NTPase/helicase [4]; [9]) [µM] | SI50 (HCV)
1 | COC(=O)c1cccc2oc(-c3cccc4oc(-c5ccccc5O)nc34)nc12 [Compound 1, UK-1] | inactive; also recorded: did not show any activity | inhibit | 378 | > 1290 | 0.21 | still active against HCV | > 20 | > 1290 | 11.6 | 0.72 |  |  |  |  |  |  |  |  |  | 
2 | COC(=O)c1cccc2oc(-c3ccc4c(OCc5ccccc5)cccc4c3O)nc12 [Compound 2a, 2-(5-Benzyloxy-1-hydroxy-naphthalene-2-yl)-benzoxazole-4-carboxylic Acid Methyl Ester] |  | inhibit |  |  | 1.13 |  |  |  | > 20 |  | 3.76 | 3.8 | inactive | > 1180 | >17.7 | 183.5 to 185 | inhibitory | 20.4 | 20 | 
3 | COC(=O)c1cccc2oc(-c3ccc4ccc(OCc5ccccc5)cc4c3O)nc12 [Compound 2b, 2-(7-benzyloxy-1-hydroxy-napthalen-2-yl)-benzoxazole-4 Carboxylic Acid Methyl Ester] |  | inhibit |  |  | 0.47 |  |  |  | > 20 |  | 2.59 | 2.6 | inactive | > 1180 | >42.6 |  | inhibitory | 19.7 | 20 | 
4 | COC(=O)c1cccc2oc(-c3ccc4ccccc4c3O)nc12 [Compound 6, 2-(1-Hydroxy-naphthalen-2-yl)benzoxazole-4-carboxylic Acid Methyl Ester] |  | inhibit |  |  | 0.21 |  | 1.68 |  | 1.61 | 1.32 | 539 | 539 | inactive | > 1570 | 7.67 |  | inhibitory | 592 | 591 | >1.27
5 | COC(=O)c1cccc2oc(-c3ccccc3O)nc12 [Compound 8] | inactive; also recorded: did not show any activity |  | > 1860 | > 1860 | 0.32 | still active against HCV | 5.18 | > 1860 | 5.2 | 0.58 |  |  |  |  | 16.2 |  |  |  |  | >8.93
6 | O=C(O)c1cccc2oc(-c3ccccc3O)nc12 [Compound 9] | inactive; also recorded: did not show any activity |  | > 1960 | > 1960 | 0.21 | still active against HCV |  | > 1960 | 3.51 |  |  |  |  |  | 16.7 |  |  |  |  | 
7 | CNC(=O)c1cccc2oc(-c3ccccc3O)nc12 [Compound 10] | inactive; also recorded: did not show any activity |  | > 1860 | > 1860 | 1.41 | still active against HCV |  | > 1860 | 6.32 |  |  |  |  |  | 4.5 |  |  |  |  | 
